Assay results published in patent US7371766B2, “Curcumin analogs with anti-tumor and anti-angiogenic properties” (Emory University, priority 1999, dated 2008).
Where two headings read alike, the source gives them in different places.

Legend:
SR = assay: cells; conditions: Homo sapiens, 48 h; for GI50: read-out: Median Growth Inhibitory Concentration (GI50); for CC50: read-out: Median Lethal Concentration (LC50)
SF-295 = assay: cells; conditions: Homo sapiens, SF-295, 48 h; for GI50: read-out: Median Growth Inhibitory Concentration (GI50); for CC50: read-out: Median Lethal Concentration (LC50)
SK-MEL-2 = assay: cells; conditions: Homo sapiens, SK-MEL-2, 48 h; for GI50: read-out: Median Growth Inhibitory Concentration (GI50); for CC50: read-out: Median Lethal Concentration (LC50)
MALME-3M = assay: cells; conditions: Homo sapiens, 48 h; for GI50: read-out: Median Growth Inhibitory Concentration (GI50); for CC50: read-out: Median Lethal Concentration (LC50)
HT29 = assay: cells; conditions: Homo sapiens, HT-29, 48 h; for GI50: read-out: Median Growth Inhibitory Concentration (GI50); for CC50: read-out: Median Lethal Concentration (LC50)
UACC-62 = assay: cells; conditions: Homo sapiens, UACC-62, 48 h; for GI50: read-out: Median Growth Inhibitory Concentration (GI50); for CC50: read-out: Median Lethal Concentration (LC50)
RPMI-8226 = assay: cells; conditions: Homo sapiens, RPMI-8226, 48 h, read-out: Median Growth Inhibitory Concentration (GI50)
NCI-H23 = assay: cells; conditions: Homo sapiens, NCI-H23, 48 h; for GI50: read-out: Median Growth Inhibitory Concentration (GI50); for CC50: read-out: Median Lethal Concentration (LC50)
HS 578T = assay: cells; conditions: Homo sapiens, 48 h; for GI50: read-out: Median Growth Inhibitory Concentration (GI50); for CC50: read-out: Median Lethal Concentration (LC50)
TK-10 = assay: cells; conditions: Homo sapiens, TK-10, 48 h; for GI50: read-out: Median Growth Inhibitory Concentration (GI50); for CC50: read-out: Median Lethal Concentration (LC50)
A498 = assay: cells; conditions: Homo sapiens, A498, 48 h; for GI50: read-out: Median Growth Inhibitory Concentration (GI50); for CC50: read-out: Median Lethal Concentration (LC50)
MDA-N = assay: cells; conditions: Homo sapiens, 48 h; for GI50: read-out: Median Growth Inhibitory Concentration (GI50); for CC50: read-out: Median Lethal Concentration (LC50)
DU-145 = assay: cells; conditions: Homo sapiens, DU-145, 48 h; for GI50: read-out: Median Growth Inhibitory Concentration (GI50); for CC50: read-out: Median Lethal Concentration (LC50)
BT-549 = assay: cells; conditions: Homo sapiens, BT-549, 48 h; for GI50: read-out: Median Growth Inhibitory Concentration (GI50); for CC50: read-out: Median Lethal Concentration (LC50)
HL-60 (TB) = assay: cells; conditions: Homo sapiens, HL-60, 48 h; for GI50: read-out: Median Growth Inhibitory Concentration (GI50); for CC50: read-out: Median Lethal Concentration (LC50)
M14 = assay: cells; conditions: Homo sapiens, M14, 48 h; for GI50: read-out: Median Growth Inhibitory Concentration (GI50); for CC50: read-out: Median Lethal Concentration (LC50)
SK-MEL-5 = assay: cells; conditions: Homo sapiens, SK-MEL-5, 48 h, read-out: Median Growth Inhibitory Concentration (GI50)
MDA-MB-435 = assay: cells; conditions: Homo sapiens, MDA-MB-435, 48 h; for GI50: read-out: Median Growth Inhibitory Concentration (GI50); for CC50: read-out: Median Lethal Concentration (LC50)
OVCAR-8 = assay: cells; conditions: Homo sapiens, OVCAR-8, 48 h; for GI50: read-out: Median Growth Inhibitory Concentration (GI50); for CC50: read-out: Median Lethal Concentration (LC50)
IGROV1 = assay: cells; conditions: Homo sapiens, IGROV-1, 48 h; for GI50: read-out: Median Growth Inhibitory Concentration (GI50); for CC50: read-out: Median Lethal Concentration (LC50)
K-562 = assay: cells; conditions: Homo sapiens, K562, 48 h; for GI50: read-out: Median Growth Inhibitory Concentration (GI50); for CC50: read-out: Median Lethal Concentration (LC50)
[1] = system: Sixty human tumor cell lines; assay: cells; conditions: 48 h; for GI50: read-out: Median Growth Inhibitory Concentration (GI50), Mean; for CC50: read-out: Median Lethal Concentration (LC50), Mean
OVCAR-5 = assay: cells; conditions: Homo sapiens, OVCAR-5, 48 h; for GI50: read-out: Median Growth Inhibitory Concentration (GI50); for CC50: read-out: Median Lethal Concentration (LC50)
SW-620 = assay: cells; conditions: Homo sapiens, SW-620, 48 h; for GI50: read-out: Median Growth Inhibitory Concentration (GI50); for CC50: read-out: Median Lethal Concentration (LC50)
HCT-116 = assay: cells; conditions: Homo sapiens, HCT-116, 48 h; for GI50: read-out: Median Growth Inhibitory Concentration (GI50); for CC50: read-out: Median Lethal Concentration (LC50)
SF-539 = assay: cells; conditions: Homo sapiens, SF-539, 48 h; for GI50: read-out: Median Growth Inhibitory Concentration (GI50); for CC50: read-out: Median Lethal Concentration (LC50)
U251 = assay: cells; conditions: Homo sapiens, U-251, 48 h; for GI50: read-out: Median Growth Inhibitory Concentration (GI50); for CC50: read-out: Median Lethal Concentration (LC50)
OVCAR-4 = assay: cells; conditions: Homo sapiens, OVCAR-4, 48 h; for GI50: read-out: Median Growth Inhibitory Concentration (GI50); for CC50: read-out: Median Lethal Concentration (LC50)
EKVX = assay: cells; conditions: Homo sapiens, 48 h; for GI50: read-out: Median Growth Inhibitory Concentration (GI50); for CC50: read-out: Median Lethal Concentration (LC50)
RPMI-7951 human melanoma = assay: Neutral Red Assay, cell viability, RPMI-7951; conditions: Homo sapiens
[2] = RPMI-7951, 72 h, read-out: Neutral Red Uptake, %
[3] = RPMI-7951, read-out: Cell Viability

## COc1cc(/C=C/C(=O)CC(=O)/C=C/c2ccc(O)c(OC)c2)ccc1O [Curcumin]
SR
  GI50: 3.2 µM
  CC50: 79.4 µM
SF-295
  GI50: 7.9 µM
  CC50: 50.1 µM
SK-MEL-2
  GI50: 15.8 µM
  CC50: 79.4 µM
MALME-3M
  GI50: 12.6 µM
  CC50: 50.1 µM
HT29
  GI50: 5 µM
  CC50: < 100 µM
UACC-62
  GI50: 6.3 µM
  CC50: 50.1 µM
RPMI-8226
  GI50: 2 µM
NCI-H23
  GI50: 5 µM
  CC50: < 100 µM
HS 578T
  GI50: 10 µM
  CC50: < 100 µM
TK-10
  GI50: 15.8 µM
  CC50: 63.1 µM
A498
  GI50: 15.8 µM
  CC50: 63.1 µM
MDA-N
  GI50: 2.5 µM
  CC50: 31.6 µM
DU-145
  GI50: 15.8 µM
  CC50: 63.1 µM
BT-549
  GI50: 5 µM
  CC50: 39.8 µM
HL-60 (TB)
  GI50: 7.9 µM
  CC50: < 100 µM
M14
  GI50: 4 µM
  CC50: 50.1 µM
SK-MEL-5
  GI50: 7.9 µM
MDA-MB-435
  GI50: 3.2 µM
  CC50: 39.8 µM
OVCAR-8
  GI50: 7.9 µM
  CC50: 79.4 µM
IGROV1
  GI50: 7.9 µM
  CC50: 79.4 µM
K-562
  GI50: 3.2 µM
  CC50: < 100 µM
[1]
  GI50: 6.7 µM
  CC50: 66 µM
OVCAR-5
  GI50: 15.8 µM
  CC50: 79.4 µM
SW-620
  GI50: 4 µM
  CC50: 79.4 µM
HCT-116
  GI50: 3.2 µM
  CC50: 50.1 µM
SF-539
  GI50: 3.2 µM
  CC50: 31.6 µM
U251
  GI50: 5 µM
  CC50: 50.1 µM
OVCAR-4
  GI50: 10 µM
  CC50: < 100 µM
EKVX
  GI50: 15.8 µM
  CC50: 79.4 µM
RPMI-7951 human melanoma; [2]
  viability at 5 µM: 100%
  viability at 20 µM: 14%
RPMI-7951 human melanoma; [3]
  viability at 5 µM: 105%
  viability at 20 µM: 47%

## CC(=O)O.O=C1C(=Cc2ccccc2F)CNCC1=Cc1ccccc1F [EF24, 3,5-Bis-(2-fluorobenzylidene)-piperidin-4-one-acetate]
SR
  GI50: 0.1 µM
  CC50: 68.2 µM
SF-295
  GI50: 85 µM
  CC50: 20.6 µM
SK-MEL-2
  GI50: 2.6 µM
  CC50: 19.5 µM
MALME-3M
  GI50: 2.3 µM
  CC50: 25.2 µM
HT29
  GI50: 0.3 µM
  CC50: 57.3 µM
UACC-62
  GI50: 1.6 µM
  CC50: 4.5 µM
RPMI-8226
  GI50: 0.2 µM
NCI-H23
  GI50: 0.9 µM
  CC50: 5.3 µM
HS 578T
  GI50: 1 µM
  CC50: 81.4 µM
TK-10
  GI50: 3.1 µM
  CC50: 27.8 µM
A498
  GI50: 0.9 µM
  CC50: 3.4 µM
MDA-N
  GI50: 0.5 µM
  CC50: 5.6 µM
DU-145
  GI50: 0.7 µM
  CC50: 5.4 µM
BT-549
  GI50: 0.7 µM
  CC50: 4.7 µM
HL-60 (TB)
  GI50: 0.4 µM
  CC50: > 100 µM
M14
  GI50: 1.2 µM
  CC50: 27.7 µM
SK-MEL-5
  GI50: 1.3 µM
MDA-MB-435
  GI50: 0.6 µM
  CC50: 7.4 µM
OVCAR-8
  GI50: 0.4 µM
  CC50: 31.3 µM
IGROV1
  GI50: 0.8 µM
  CC50: 7.1 µM
K-562
  GI50: 0.3 µM
  CC50: 75.4 µM
[1]
  GI50: 0.7 µM
  CC50: 13.2 µM
OVCAR-5
  GI50: 1.3 µM
  CC50: 9.2 µM
SW-620
  GI50: 0.2 µM
  CC50: 4.4 µM
HCT-116
  GI50: 0.2 µM
  CC50: 1.8 µM
SF-539
  GI50: 0.3 µM
  CC50: 7.6 µM
U251
  GI50: 0.2 µM
  CC50: 0.8 µM
OVCAR-4
  GI50: 0.7 µM
  CC50: 17.2 µM
EKVX
  GI50: 0.9 µM
  CC50: 9.4 µM
